Experiments:
Assay in all cases: relative viability (nuclei count vs DMSO), 5 days (fraction); higher = more cells survive
Vemurafenib + Tozasertib = compound: CCCS(=O)(=O)Nc1ccc(F)c(C(=O)c2c[nH]c3ncc(-c4ccc(Cl)cc4)cc23)c1F [Vemurafenib] + Cc1cc(Nc2cc(N3CCN(C)CC3)nc(Sc3ccc(NC(=O)C4CC4)cc3)n2)n[nH]1 [Tozasertib] (partner 0.1 µM)
Method in brief: (§1)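 Lung cancer cell lines in 1536-well plates were dosed by pin tool the day after seeding, either with one drug alone or with a fixed anchor-drug dose plus five library-drug doses (not always all listed) in √10 steps. After 5 days, cells were fixed and their nuclei stained in one step (final 0.05% Triton X-100, 1% formaldehyde, 1 ug/ml Hoechst), then counted on 4× images. Relative viability is the nuclei count in treated wells divided by that in vehicle wells. Values are medians of duplicate plates.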

Vemurafenib + Olaparib = compound: CCCS(=O)(=O)Nc1ccc(F)c(C(=O)c2c[nH]c3ncc(-c4ccc(Cl)cc4)cc23)c1F [Vemurafenib] + O=C(c1cc(Cc2n[nH]c(=O)c3ccccc23)ccc1F)N1CCN(C(=O)C2CC2)CC1 [Olaparib] (partner 8 µM)
Method in brief: as §1

Alpelisib + AZD7762 = compound: Cc1nc(NC(=O)N2CCC[C@H]2C(N)=O)sc1-c1ccnc(C(C)(C)C(F)(F)F)c1 [Alpelisib] + NC(=O)Nc1cc(-c2cccc(F)c2)sc1C(=O)N[C@H]1CCCNC1 [AZD7762] (partner 0.2 µM)
Method in brief: as §1

Alpelisib + Phenformin = compound: Cc1nc(NC(=O)N2CCC[C@H]2C(N)=O)sc1-c1ccnc(C(C)(C)C(F)(F)F)c1 [Alpelisib] + N=C(N)NC(=N)NCCc1ccccc1 [Phenformin] (partner 250 µM)
Method in brief: as §1

Cell Line	relative viability (Vemurafenib + Tozasertib; first compound 0.03162 µM)	relative viability (Vemurafenib + Tozasertib; first compound 0.1 µM)	relative viability (Vemurafenib + Tozasertib; first compound 1 µM)	relative viability (Vemurafenib + Olaparib; first compound 0.03162 µM)	relative viability (Vemurafenib + Olaparib; first compound 0.1 µM)	relative viability (Vemurafenib + Olaparib; first compound 0.3162 µM)	relative viability (Vemurafenib + Olaparib; first compound 1 µM)	relative viability (Alpelisib + AZD7762; first compound 0.04 µM)	relative viability (Alpelisib + AZD7762; first compound 0.1265 µM)	relative viability (Alpelisib + AZD7762; first compound 0.4 µM)	relative viability (Alpelisib + AZD7762; first compound 1.265 µM)	relative viability (Alpelisib + AZD7762; first compound 4 µM)	relative viability (Alpelisib + Phenformin; first compound 0.04 µM)	relative viability (Alpelisib + Phenformin; first compound 0.1265 µM)	relative viability (Alpelisib + Phenformin; first compound 0.4 µM)	relative viability (Alpelisib + Phenformin; first compound 1.265 µM)	relative viability (Alpelisib + Phenformin; first compound 4 µM)	relative viability (Vemurafenib + Tozasertib; first compound 0.3162 µM)
NCI-H650	0.696	0.703	0.614	0.385	0.368	0.305	0.378	1.08	0.769	0.931	0.773	0.837	0.469	0.429	0.534	0.349	0.369	
NCI-H1563													0.637	0.698	0.64	0.604	0.589	
NCI-H1792				0.404	0.45		0.441	0.59	0.534	0.783	0.465	0.36	0.593	0.262	0.291	0.0902	0.0842	
SK-MES-1	0.831	0.915	0.751	0.623	0.576	0.777	0.688						0.662	0.635	0.755	0.608	0.675	0.829
NCI-H1623	0.409		0.41										0.548	0.545	0.516	0.532	0.426	0.452
NCI-H2228	0.228	0.234	0.21	0.639	0.87	0.611	0.6						0.363	0.284	0.306	0.171	0.175	0.244
NCI-H1648	0.489		0.477		0.434	0.927	0.761	0.581	0.591	0.821	0.62	0.521						0.962
NCI-H1299				0.906	0.954	0.863	0.792											
COR-L23	0.14	0.202	0.143	0.332	0.353	0.298	0.341						0.388	0.414	0.49	0.402	0.36	0.181
NCI-H2009	0.698	0.644	0.648	0.61	0.661	0.612	0.652						0.502	0.458	0.555	0.456	0.468	0.625
NCI-H1703				0.432	0.307	0.454	0.515	0.0965	0.129	0.125	0.103	0.116						
A549				0.315	0.323	0.186	0.249						0.147	0.21	0.172	0.16	0.115	
NCI-H520	0.529	0.411	0.415	0.284	0.337	0.364	0.359						0.55	0.439	0.417	0.316	0.311	0.435
COR-L 105	0.394		0.433	0.617		0.742	0.734						0.446	0.593	0.669	0.416	0.415	

— the supplement of paper PMC10307832
